Measurements as given in ChEMBL document CHEMBL1165907, “A comparative study of flavonoid analogues on streptozotocin-nicotinamide induced diabetic rats: quercetin as a potential antidiabetic agent acting via 11beta-hydroxysteroid dehydrogenase type 1 inhibition” (2010).

Assays:
Rattus norvegicus [1] = test: Hypoglycemic activity in Wistar rat assessed as change in blood glucose level at 50 mg/kg, ig after 1 hr (RVb = 10.96 +/- 3.67 %); assay type: functional; conditions: route intragastric
Rattus norvegicus [2] = test: Hypoglycemic activity in Wistar rat assessed as change in blood glucose level at 50 mg/kg, ig after 3 hrs (RVb = 1.39 +/- 5.895 %); assay type: functional; conditions: route intragastric
Rattus norvegicus [3] = test: Hypoglycemic activity in Wistar rat assessed as change in blood glucose level at 50 mg/kg, ig after 5 hrs (RVb = 1.21+/- 3.64 %); assay type: functional; conditions: route intragastric
Rattus norvegicus [4] = test: Hypoglycemic activity in Wistar rat assessed as change in blood glucose level at 50 mg/kg, ig after 7 hrs (RVb = -3.59 +/- 2.65 %); assay type: functional; conditions: route intragastric
Rattus norvegicus [5] = test: Antidiabetic activity in Wistar rat assessed as change in blood glucose level at 50 mg/kg, ig after 1 hr (RVb = 20.18 % +/- 8.49%); assay type: functional; conditions: route intragastric
Rattus norvegicus [6] = test: Antidiabetic activity in Wistar rat assessed as change in blood glucose level at 50 mg/kg, ig after 3 hrs (RVb = -9.83 % +/- 5.67%); assay type: functional; conditions: route intragastric
Rattus norvegicus [7] = test: Antidiabetic activity in Wistar rat assessed as change in blood glucose level at 50 mg/kg, ig after 7 hrs (RVb = -10.51% +/- 5.53%); assay type: functional; conditions: route intragastric
Rattus norvegicus [8] = test: Antidiabetic activity in Wistar rat assessed as change in blood glucose level at 50 mg/kg, ig after 5 hrs (RVb = -1.17% +/- 8.77%); assay type: functional; conditions: route intragastric
Rattus norvegicus [9] = test: Antidiabetic activity in STZ-induced Wistar rat assessed as reduction in blood glucose level at 50 mg/kg, ig after 1 day relative to control; assay type: functional; parameters: scale not given: the % may be the effect or the level left; conditions: route intragastric
Rattus norvegicus [10] = test: Antidiabetic activity in STZ-induced Wistar rat assessed as reduction in blood glucose level at 50 mg/kg, ig after 2 day relative to control; assay type: functional; parameters: scale not given: the % may be the effect or the level left; conditions: route intragastric
Rattus norvegicus [11] = test: Antidiabetic activity in STZ-induced Wistar rat assessed as reduction in blood glucose level at 50 mg/kg, ig after 3 day relative to control; assay type: functional; parameters: scale not given: the % may be the effect or the level left; conditions: route intragastric
Rattus norvegicus [12] = test: Antidiabetic activity in STZ-induced Wistar rat assessed as reduction in blood glucose level at 50 mg/kg, ig after 4 day relative to control; assay type: functional; parameters: scale not given: the % may be the effect or the level left; conditions: route intragastric
Rattus norvegicus [13] = test: Antidiabetic activity in STZ-induced Wistar rat assessed as reduction in blood glucose level at 50 mg/kg, ig after 5 day relative to control; assay type: functional; parameters: scale not given: the % may be the effect or the level left; conditions: route intragastric
[14] = biological target: 11-beta-hydroxysteroid dehydrogenase 1 (Homo sapiens) (UniProt P28845); test: Inhibition of human 11beta HSD1 in HEK293 cells at 10 uM; assay type: cell-based
Chain of 11-beta-hydroxysteroid dehydrogenase 1 (Homo sapiens) (P28845 whole entry, looked up): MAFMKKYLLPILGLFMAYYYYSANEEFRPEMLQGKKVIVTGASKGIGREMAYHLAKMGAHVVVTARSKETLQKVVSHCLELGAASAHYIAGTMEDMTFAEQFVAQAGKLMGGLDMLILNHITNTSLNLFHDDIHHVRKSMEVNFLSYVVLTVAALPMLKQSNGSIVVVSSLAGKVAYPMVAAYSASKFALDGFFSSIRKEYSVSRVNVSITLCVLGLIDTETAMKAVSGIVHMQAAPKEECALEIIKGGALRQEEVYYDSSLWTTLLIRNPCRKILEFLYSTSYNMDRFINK

In the case of O=c1cc(-c2ccccc2)oc2ccc(O)cc12 [6-HYDROXYFLAVONE], the Activity (Rattus norvegicus [1]) is reported as -16.21%, the Activity (Rattus norvegicus [2]) is reported as 6.51% and the Activity (Rattus norvegicus [3]) is reported as 6.41%. It also gave an Activity (Rattus norvegicus [4]) of -0.93%, an Activity (Rattus norvegicus [5]) of -13.08% and an Activity (Rattus norvegicus [6]) of -11.07%. It also gave an Activity (Rattus norvegicus [7]) of -25.42%, an Activity (Rattus norvegicus [8]) of -19.81% and an Activity (Rattus norvegicus [9]) of 16.9%. It also gave an Activity (Rattus norvegicus [10]) of 6.6%, an Activity (Rattus norvegicus [11]) of 13.15% and an Activity (Rattus norvegicus [12]) of 2.53%. For the same molecule, the Activity (Rattus norvegicus [13]) was 34.7%.
O=c1cc(-c2ccccc2)oc2cc(O)ccc12 [7-HYDROXYFLAVONE] gave an Activity (Rattus norvegicus [1]) of 5.05%, an Activity (Rattus norvegicus [2]) of -6.19% and an Activity (Rattus norvegicus [3]) of 7.39%. The Activity (Rattus norvegicus [4]) was -4.81%, the Activity (Rattus norvegicus [5]) was -12.79% and the Activity (Rattus norvegicus [6]) was -12.69%. For the same molecule, the Activity (Rattus norvegicus [7]) was -12.18%, the Activity (Rattus norvegicus [8]) was -10.03% and the Activity (Rattus norvegicus [9]) was 8.8%. The Activity (Rattus norvegicus [10]) was 35.5%, the Activity (Rattus norvegicus [11]) was 36% and the Activity (Rattus norvegicus [12]) was 20.4%. The Activity (Rattus norvegicus [13]) was 38.5%.
Molecule O=c1cc(-c2ccccc2)oc2cc(O)cc(O)c12 [CHRYSIN] has an Activity (Rattus norvegicus [1]) of -9.27%, an Activity (Rattus norvegicus [2]) of -19.98% and an Activity (Rattus norvegicus [3]) of -17.08%. For the same molecule, the Activity (Rattus norvegicus [4]) was -9.42%, the Activity (Rattus norvegicus [5]) was -1.7% and the Activity (Rattus norvegicus [6]) was -9.96%. The Activity (Rattus norvegicus [7]) was -35.5%, the Activity (Rattus norvegicus [8]) was -10.41% and the Activity (Rattus norvegicus [9]) was 7.07%. The Activity (Rattus norvegicus [10]) was 19.6%, the Activity (Rattus norvegicus [11]) was 5.2% and the Activity (Rattus norvegicus [12]) was 0.5%. The Activity (Rattus norvegicus [13]) was 17.17%.
O=c1cc(-c2ccccc2)oc2ccccc12 [FLAVONE] showed an Activity (Rattus norvegicus [1]) of -16.16%, an Activity (Rattus norvegicus [2]) of -21.56% and an Activity (Rattus norvegicus [3]) of -24.7%. It also gave an Activity (Rattus norvegicus [4]) of -11.65%, an Activity (Rattus norvegicus [5]) of 13.53% and an Activity (Rattus norvegicus [6]) of -10.02%. For the same molecule, the Activity (Rattus norvegicus [7]) was -39.69%, the Activity (Rattus norvegicus [8]) was -21.41% and the Activity (Rattus norvegicus [9]) was 0.05%. For the same molecule, the Activity (Rattus norvegicus [10]) was 32.76%, the Activity (Rattus norvegicus [11]) was 19.5% and the Activity (Rattus norvegicus [12]) was 10.6%. The Activity (Rattus norvegicus [13]) was 10.8% and the inhibition [14] was 16%.
For O=c1c(O)c(-c2ccccc2)oc2ccccc12 [FLAVONOL], the Activity (Rattus norvegicus [1]) was -6.04%, the Activity (Rattus norvegicus [2]) was -20.2% and the Activity (Rattus norvegicus [3]) was -2.36%. The Activity (Rattus norvegicus [4]) was -10.05%, the Activity (Rattus norvegicus [5]) was 1.93% and the Activity (Rattus norvegicus [6]) was -5.92%. For the same molecule, the Activity (Rattus norvegicus [7]) was -16.04%, the Activity (Rattus norvegicus [8]) was -15.66% and the Activity (Rattus norvegicus [9]) was 2.09%. The Activity (Rattus norvegicus [10]) was 7.7%, the Activity (Rattus norvegicus [11]) was 35.7% and the Activity (Rattus norvegicus [12]) was 60.1%. The Activity (Rattus norvegicus [13]) was 9.2%.
For COc1ccc(Cl)cc1C(=O)NCCc1ccc(S(=O)(=O)NC(=O)NC2CCCCC2)cc1 [GLYBURIDE], the Activity (Rattus norvegicus [1]) was -8.29%, the Activity (Rattus norvegicus [2]) was -21.71% and the Activity (Rattus norvegicus [3]) was -24.78%. The Activity (Rattus norvegicus [4]) was -23.77%, the Activity (Rattus norvegicus [5]) was -21.93% and the Activity (Rattus norvegicus [6]) was -24.93%. For the same molecule, the Activity (Rattus norvegicus [7]) was -42.52%, the Activity (Rattus norvegicus [8]) was -43.88% and the Activity (Rattus norvegicus [9]) was 33.2%. The Activity (Rattus norvegicus [10]) was 32.2%, the Activity (Rattus norvegicus [11]) was 38.5% and the Activity (Rattus norvegicus [12]) was 50%. The Activity (Rattus norvegicus [13]) was 40%.
O=c1c(O)c(-c2ccc(O)c(O)c2)oc2cc(O)cc(O)c12 [QUERCETIN] showed an Activity (Rattus norvegicus [1]) of -16.19%, an Activity (Rattus norvegicus [2]) of -21.1% and an Activity (Rattus norvegicus [3]) of -10.74%. The Activity (Rattus norvegicus [4]) was -17.85%, the Activity (Rattus norvegicus [5]) was -2.37% and the Activity (Rattus norvegicus [6]) was -17.28%. For the same molecule, the Activity (Rattus norvegicus [7]) was -42.62%, the Activity (Rattus norvegicus [8]) was -52.68% and the Activity (Rattus norvegicus [9]) was 10.8%. It also gave an Activity (Rattus norvegicus [10]) of 13.3%, an Activity (Rattus norvegicus [11]) of 27% and an Activity (Rattus norvegicus [12]) of 21.3%. For the same molecule, the Activity (Rattus norvegicus [13]) was 3.7% and the inhibition [14] was 27%.
